Results as given in patent US20060241067A1, “Methods For inhibiting angiogenesis, cell migration, cell adhesion, and cell survival” (priority 2002, published 2006).
Entries after “also recorded” stand apart in the source; their conditions may differ.

Experiments:
[1] = test system: Human umbilical vein endothelial cells (HUVEC); assay: Cell adhesion (attachment) assay on ECM substrates; type: cell-based; settings: cAMP treatment or PKA catalytic subunit transfection
Description: (§1) Human umbilical vein endothelial cells (HUVEC) were grown in Endothelial Growth Medium (containing 2% fetal bovine serum, bFGF and VEGF) (Clonetics, San Diego, Calif.). To render HUVECs quiescent for Rac and/or Rho assays, monolayers of endothelial cells were incubated for 18 hrs in Endothelial Basal Medium supplemented with 0.1% serum (Clonetics). Cell migration and adhesion assays on ECM substrates were performed as previously described in Kim et al. (S. Kim et al., Amer. J. Biol. Chem., 275:33920-33928 (2000); and S. Kim et al., Amer. J. Path., 156:1345-1362 (2000)).

[2] = test system: Rho; assay: Rho activity assay (GST-Rhotekin binding domain affinity precipitation); type: cell-based, human; settings: cells attached to vitronectin 15 minutes; 250 μM dibutyryl cAMP or transfection
Description: as §1
(§2) Rho activity was determined by measuring the amount of Rho affinity bound to GST-Rhotekin binding domain (RBD). Levels of active Rho were determined by Western blotting affinity precipitated protein with anti-Rho antibodies while total Rho levels were measured by immunoblotting total cell lysates with anti-Rho. Rac activity was determined by measuring the amount of Rac affinity precipitated by the GST-p21-activated protein binding domain, PBD (Upstate Biotechnology, Syracuse, N.Y.). Levels of active Rac were determined by immunoblotting affinity precipitated protein with anti-Rac antibodies. […] Total Rac levels were measured by immunoblotting total cell lysates with anti-Rac.

[3] = test system: Rac; assay: Rac activity assay (GST-PBD affinity precipitation); type: cell-based, human; settings: vitronectin 30 minutes, cAMP, PTHrP or transfection
Description: as §1, §2

[4] = test system: HUVECS; assay: Staining of actin filaments and focal contacts (rhodamine phalloidin, anti-vinculin); type: cell-based, human
Description: Round […] glass coverslips were coated with 5 μg/ml vitronectin for 1 hour at 37° C., then blocked with 3% bovine serum albumin for 2 hours at 37° C. HUVECS were removed from culture dishes by trypsizination, washed in serum-free culture medium, and resuspended in endothelial basal culture medium. Cells were then incubated for one hour at 37° C. on coated coverslips. Cells were incubated in the presence of 25 μg/ml anti-α5β1, anti-α2β1 or no antibodies for 60 minutes. Alternatively, cells in endothelial growth medium containing VEGF and bFGF but no serum were plated on coverslips for 48 hours and then treated with cAMP or medium. Coverslips were then washed to remove unbound cells, fixed for 5 minutes in 3.7% paraformaldehyde and permeabilized in 0.3% TX-100 for 3 minutes. Coverslips were incubated with 0.2 μg/ml anti-vinculin antibodies or rhodamine phalloidin (20 ng/ml) in 20 mg/ml bovine serum albumin in phosphate buffered saline for one hour at room temperature. Coverslips were well washed in PBS and incubated in 10 μg/ml goat anti-mouse-Alexa 568 (for anti-vinculin) for 1 hour at room temperature. Coverslips were mounted using mounting medium prior to fluorescent microsopy.

[5] = test system: chick chorioallantoic membrane (CAM); assay: Chick chorioallantoic membrane (CAM) angiogenesis assay; type: in vivo, chicken; settings: bFGF stimulated CAMs; 250 μM cAMP or 4 μg plasmid
[6] = test system: chick chorioallantoic membrane (CAM); assay: Apoptosis markers in CAM blood vessels in vivo (Annexin V, cleaved caspases, TUNEL, DNA gels); design: species or system chicken; settings: bFGF-stimulated CAMs
Description: CAM assays were performed as described (Kim et al. (2000) Am. J. Path. 156:1345-1362). Saline or bFGF stimulated CAMs were treated for 24 h with 20 μg anti-α5β1, anti-αvβ3 or control antibodies and then injected intravenously with 50 μl Annexin V-FITC. CAMs were harvested after 2 h, then analyzed by confocal microscopy. Alternatively, CAMs treated as above were excised, minced on ice, and treated with 0.1% dispase/0.1% collagenase for 1 h at 37° C. Single cell suspensions were incubated with FITC-Annexin V and analyzed as described above. bFGF stimulated CAMs were also treated with anti-α5β1 or anti-αvβ3 in the presence or absence of 500 μM caspase-3, -8 or -9 inhibitors. bFGF stimulated CAMs were also transfected with 4 μg N1-GFP, dnPKA or PKAcat expression plasmids. Freshly excised CAMs were homogenized in ice cold RIPA buffer containing protease inhibitors and immunoblotted to detect intact and cleaved caspase 3 or 8. For all treatment groups, n=10. CAMs were fixed with 3.7% paraformaldehyde prior to excision. The average number of blood vessel branch points per treatment group+/−SEM is presented. Some excised CAMs were cryopreserved, cut into 5 μm sections, immunostained with anti-cleaved caspase 3, anti-cleaved caspase 8 and anti-VFW antibodies (to detect blood vessels). CAMs were also stained by the TUNEL method to detect fragmented DNA.

[7] = test system: HUVECS; assay: Time lapse videomicroscopy of migrating endothelial cells; type: cell-based, human; settings: 500 μM dibutyryl-cAMP, vitronectin
Description: 2.5-cm-diameter glass coverslips were coated with 5 μg/ml vitronectin for 1 hour at 37° C., then blocked with 3% bovine serum albumin for 2 hours. HUVECs were removed from culture dishes by trypsizination, and plated on coverslips for 48 hours. Coverslips were then placed on the microscope stage (Zeiss, Oberkochen, Germany) connected to a Charged Coupled Device (CCD) camera and viewed at a 200× magnification in bright field. Cells on the coverslips were kept at 37° C. with 5% CO2, bathed in culture media with 20 mM HEPES (pH7.4). Images were recorded using IP Lab software (Webster, N.Y.) at 1-minute intervals for 60 minutes. Dibutyryl-cAMP was then directly added into the culture medium at concentration of 500 μM. Images of cells were then recorded for an additional 60 minutes at 1-minute intervals. Cell shape and migration distance changes were quantified using IMAQ Vision Builder software (National Instruments Corporation, Austin, Tex.). Cell shape and nuclear positions were measured at 10-minute time points. Ellipse Ratio was used as a parameter for polarity. As cell shape approaches a circle, the Ellipse Ratio approaches the number one. Distance migrated was determined by measuring the distance nuclei moved in ten minute intervals. […] Images were recorded using IP Lab Spectrum software (Webster, N.Y.) at 1-minute intervals for 60 minutes. […]

Structure (SMILES): CCCC(=O)Nc1ncnc2c1ncn2[C@@H]1O[C@@H]2COP(=O)(O)O[C@H]2[C@H]1OC(=O)CCC [dibutyryl cAMP]
- cell attachment to vitronectin [1]: enhanced cell attachment to vitronectin
- Rho activity (GTP-loading) [2]: stimulates Rho activity (GTP-loading)
- Rac activation (RacGTP to total Rac) [3]: blocked
- Rac activation (RacGTP to total Rac) ([3]; listed as cell permeable cAMP): inhibits Rac activation
- increase in the number of focal adhesions ([4]; cAMP treated versus untreated cells): 3 fold
- cell shape, stress fibers and actin remodeling ([4]; cAMP treatment or transfection, vitronectin): remain round and flat and exhibit neither stress fibers nor cortical actin; also recorded: inhibited actin remodeling and induced a flattened morphology
- localization of Rho A ([4]; immunolocalization, cAMP treated cells): stimulates the translocation of Rho A to the plasma membrane
- angiogenesis (blood vessel branch points) [5]: completely suppresses angiogenesis; also recorded: potently inhibits angiogenesis
- endothelial cell apoptosis in vivo (TUNEL staining) [6]: induces endothelial cell apoptosis in vivo
- cell shape (polarity) [7]: rapidly induces a flattening of the cell shape
- endothelial cell migration (distance moved by nuclei) [7]: rapidly inhibits endothelial cell migration
